Test results as given in the supplement of paper PMC9938120.

How the values were obtained:
Experiment in all cases: drug sensitivity score (DSS3, normalised partial AUC of % inhibition dose-response) (DSS (score)); higher = more sensitive (stronger inhibition of viability); extreme values may be limits of the assay
Conditions in all cases: 72 h; library: FO5A; assay format: 2D, 384-well, CellTiter-Glo
FMOC02_1 = tested on: FMOC02_1 (patient-derived low-grade serous ovarian cancer cells)
Method in brief: (§1)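 Early-passage (under 10) patient-derived ovarian cancer cells were dispensed onto 384-well flat clear-bottom plates pre-plated with compounds at five concentrations spanning a 10,000-fold range, then incubated 72 h at 37 °C, 5% CO2. Viability was read with CellTiter-Glo, and the data were processed in Breeze. The drug sensitivity score is a partial area under the percent-inhibition dose-response curve divided by the log of the upper asymptote, with higher values meaning greater sensitivity.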

FMOC04 = tested on: FMOC04 (patient-derived high-grade serous ovarian cancer cells)
Method in brief: as §1

FMOC24 = tested on: FMOC24 (patient-derived high-grade serous ovarian cancer cells)
Method in brief: as §1

FMOC22 = tested on: FMOC22 (patient-derived mucinous ovarian cancer cells)
Method in brief: as §1

FMOC03 = tested on: FMOC03 (patient-derived mucinous ovarian cancer cells)
Method in brief: as §1

FMOC11 = tested on: FMOC11 (patient-derived high-grade serous ovarian cancer cells)
Method in brief: as §1

FMOC02_3 = tested on: FMOC02_3 (patient-derived low-grade serous ovarian cancer cells)
Method in brief: as §1

FMOC25_2 = tested on: FMOC25_2 (patient-derived low-grade serous ovarian cancer cells)
Method in brief: as §1

FMOC17 = tested on: FMOC17 (patient-derived low-grade serous ovarian cancer cells)
Method in brief: as §1

FMOC28 = tested on: FMOC28 (patient-derived low-grade serous ovarian cancer cells)
Method in brief: as §1

FMOC27 = tested on: FMOC27 (patient-derived low-grade serous ovarian cancer cells)
Method in brief: as §1

FMOC09 = tested on: FMOC09 (patient-derived high-grade serous ovarian cancer cells)
Method in brief: as §1

FMOC14 = tested on: FMOC14 (patient-derived high-grade serous ovarian cancer cells)
Method in brief: as §1

FMOC06 = tested on: FMOC06 (patient-derived mucinous ovarian cancer cells)
Method in brief: as §1

FMOC02_2 = tested on: FMOC02_2 (patient-derived low-grade serous ovarian cancer cells)
Method in brief: as §1

Measured: drug sensitivity score

O[C@H](C[C@H]1c2c(F)cccc2-c2cncn21)[C@H]1CC[C@H](O)CC1 [GDC-0919]
1: FMOC06
0.8: FMOC17 | FMOC14
2.2: FMOC28
0.1: FMOC03 | FMOC25_2
2.1: FMOC02_3
1.7: FMOC11
0.4: FMOC22
0.55: FMOC24
2: FMOC27
3.6: FMOC02_2
0: FMOC04
0.3: FMOC09
0.2: FMOC02_1

Cc1cc(Nc2ncnc3ccc(NC4=NC(C)(C)CO4)cc23)ccc1Oc1ccn2ncnc2c1 [Tucatinib]
1: FMOC28
0.1: FMOC02_2
0.5: FMOC25_2
0: all other assays above

CCOC(=O)C1=CCCC[C@H]1S(=O)(=O)Nc1ccc(F)cc1Cl [Resatorvid]
0.1: FMOC06
0: all other assays above

CC1=C2C[C@H]3[C@@H](CC[C@@H]4C[C@H](NS(C)(=O)=O)CC[C@@]43C)[C@@H]2CC[C@@]2(C1)O[C@@H]1C[C@H](C)CN[C@H]1[C@H]2C [Saridegib]
4.1: FMOC17
0.3: FMOC24
2.2: FMOC28 | FMOC02_2
0: all other assays above

Cn1cc(-c2ccc(F)c(C(F)(F)F)c2)nc1C1CCN(c2ncnc3[nH]ncc23)CC1
5.4: FMOC02_3
3.9: FMOC02_2
3.1: FMOC02_1
5.6: FMOC25_2
3.8: FMOC28
0.1: FMOC27
0.6: FMOC17
0: all other assays above

N#Cc1ccnc(N2C(=O)CC[C@H]2C(=O)N(c2cncc(F)c2)[C@H](C(=O)NC2CC(F)(F)C2)c2ccccc2Cl)c1 [Ivosidenib]
0.2: FMOC02_1 | FMOC24
0.3: FMOC17
2.6: FMOC28
0: all other assays above

Cc1nc2cccc(N)c2c(=O)n1C1CCC(=O)NC1=O (stereo not given) [CC122]
0.2: FMOC14
0.4: FMOC02_3
0.1: FMOC27
0.5: FMOC17
2.5: FMOC28
0: all other assays above

Nc1cc(COc2c(Cl)cc(C[C@H](N)C(=O)O)cc2Cl)c2oc(-c3ccccc3)nc2c1 [JPH203]
0.4: FMOC06
0: all other assays above

O=C(Nc1cnn2ccc(N3CCC[C@@H]3c3cc(F)ccc3F)nc12)N1CC[C@H](O)C1 [Larotrectinib]
0: all assays above

COCCNCc1ccc(-c2cc3nccc(Oc4ccc(NC(=S)NC(=O)Cc5ccc(F)cc5)cc4F)c3s2)nc1 [Glesatinib]
2.9: FMOC28
0.6: FMOC24
0.2: FMOC14
0: all other assays above

C[C@H]1CN(C2COC2)CCN1c1ccc(Nc2cc(-c3ccnc(N4CCn5c(cc6c5CC(C)(C)C6)C4=O)c3CO)cn(C)c2=O)nc1 [GDC-0853]
0.4: FMOC28
0: all other assays above

CC[C@@H]1CN(C(=O)NCC(F)(F)F)C[C@@H]1c1cnc2cnc3[nH]ccc3n12 [Upadacitinib]
0.1: FMOC04
1.2: FMOC24
1.3: FMOC06
2.1: FMOC28
0: all other assays above

CNC(=O)c1ccc(-c2cnc3ncc(Cc4ccc5ncccc5c4)n3n2)cc1F [Capmatinib]
0.5: FMOC27
0.1: FMOC14
0: all other assays above

O=C1Cc2cc(C(=O)NC3C[C@H]4CC[C@@H](C3)N4S(=O)(=O)CC3CCN(CCCC(F)(F)F)CC3)c(Cl)cc2N1 (stereo not given in full)
2.3: FMOC06
0.2: FMOC28
0: all other assays above

C=CC(=O)Nc1cccc(Oc2nc(Nc3ccc(N4CCN(C)CC4)cc3)nc3ccsc23)c1 [Olmutinib]
3.5: FMOC09
0.2: FMOC06
1.5: FMOC25_2
2.3: FMOC02_1 | FMOC02_3
0.4: FMOC11
2.1: FMOC02_2
1.7: FMOC28
0.8: FMOC03
2.4: FMOC27
0.05: FMOC04
2.6: FMOC17
0: all other assays above

CC(C)NC(=O)COc1cccc(-c2nc(Nc3ccc4[nH]ncc4c3)c3ccccc3n2)c1 [KD025]
6.2: FMOC02_3
1.1: FMOC06
5.4: FMOC02_1
4.4: FMOC25_2
3.55: FMOC04
0.2: FMOC09
2.7: FMOC14
1.6: FMOC11 | FMOC02_2
10.4: FMOC24
4.5: FMOC17
2.4: FMOC28
0: all other assays above

COc1cccc(-c2ccc(NC(=O)C3=C(C(=O)O)CCC3)c(F)c2)c1 [Vidofludimus]
0.6: FMOC11
0.4: FMOC03
0.05: FMOC04
2.5: FMOC25_2
0: all other assays above

Cc1nc(C(=O)NCC(=O)O)c(O)c2ccc(Oc3ccccc3)cc12 [Roxadustat]
3.3: FMOC24
0.2: FMOC27
0: all other assays above

Cc1c(-c2c(-c3ccc(F)o3)sc3ncnc(O[C@H](Cc4ccccc4OCc4ccnn4CC(F)(F)F)C(=O)O)c23)ccc(OCCN2CCN(C)CC2)c1Cl
0.05: FMOC04
2.8: FMOC02_3
8: FMOC24
0: all other assays above

COc1cc2c(cc1OCCCN1CCCC1)N=C(N)C21CCC1 [A-366]
0.1: FMOC28
4.9: FMOC25_2
7.2: FMOC24
0.7: FMOC03
0.5: FMOC14
2.3: FMOC17 | FMOC09
1.1: FMOC11
0.2: FMOC02_2
3.9: FMOC02_1 | FMOC04
0: all other assays above

CN(C(=O)c1ccc(F)cc1C(F)(F)F)C1CCN(c2nnc(-c3ccnn3C)c3ccccc23)CC1 [Taladegib]
0: all assays above

CCCCOc1nc(N)c2c(n1)N(Cc1cccc(CN3CCCC3)c1)CC(=O)N2 [Vesatolimod]
0.1: FMOC25_2
0.2: FMOC09
0: all other assays above

C[C@H](Nc1ncnc2[nH]cnc12)c1cc2ccc(F)cc2nc1-c1ccccn1 [AMG319]
0.7: FMOC24
0.1: FMOC17 | FMOC02_2
0: all other assays above

O=c1[nH]c(=O)n([C@H]2C[C@H](O)[C@@H](CO)O2)cc1C(F)(F)F [Trifluridine]
0.5: FMOC27
0.3: FMOC11
0.2: FMOC25_2
1.2: FMOC06
0: all other assays above

COc1cc(C)[nH]c(=O)c1CNC(=O)c1c(C)n([C@H](C)C2CCOCC2)c2ccccc12 [CPI-360]
0.1: FMOC02_2
3.4: FMOC28
0.05: FMOC04
0: all other assays above
